According to patent US12377110B2, “Fospropofol methods and compositions” (Epalex Corporation, priority 2019, dated 2025):
“And” between values parts separate entries of the source, which are not always exact repeats. Equal entries are not always repeated. Where two headings read alike, the source gives them in different places.

Assays:
[1] = Study A17: PK of fospropofol and propofol after single oral dose of fospropofol disodium 800 mg in subjects with migraine; settings: for AUC / Cmax / Tmax: female, human, po, 800 mg; for Cmax: Fospropofol Cmax; for Tmax: Fospropofol Tmax
Experimental: The study is planned to complete approximately 85 subjects. • Enrolled subjects will be asked to come to the study site for treatment when they experience a qualifying migraine headache. Dosing must occur within 4 hours after onset of the migraine symptoms. If treatment at the study site is not feasible or practicable within 4 hours after onset of migraine symptoms, subjects should use their usual medication for that headache and attempt to visit the clinic for treatment as soon as possible (within 4 hours) after onset of their next migraine headache. Dosing must occur within 60 days after enrollment (see Post-enrollment Period below). • At clinic check-in for treatment, study personnel will verify eligibility for closing regarding the criteria for a qualifying headache and adherence to post-enrollment study restrictions (see Eligibility for Dosing below). • Treatment will consist of a single oral dose of fospropofol disodium. […] Because the prevalence of migraine headaches is higher in women than in men, efforts will be made to enroll at least 50% women. • Subjects must meet the general inclusion and exclusion criteria listed below (Inclusion Criteria and Exclusion Criteria) at screening to be enrolled in the study. To be eligible for fospropofol disodium treatment after onset of a migraine headache, enrolled subjects must meet criteria specific to the presenting headache at clinic check-in (see Qualifying Headache below) and adhere to study restrictions specific to the period between enrollment and clinic check-in (see Post-enrollment Restrictions below). • Inclusion Criteria Subjects must meet all of the following criteria at screening to be enrolled in the study: • 1. Written informed consent approved by the Institutional Review Board (IRB) given before any study-related procedures are performed • 2. […] Complete abstinence alone can be used as a method of contraception. • 6. […] Able to comprehend the nature of the study, capable of giving written informed consent, and able to communicate effectively with clinic staff (as assessed by the investigator) • 8. Available to volunteer for the entire study duration and willing to adhere to all protocol requirements, including the post-enrollment restrictions (see Post-enrollment Restrictions below) • 9. Agrees not to post any information related to the study on any website or social media site (e.g., Facebook, Twitter, LinkedIn, Google+, etc.) until the entire trial has been completed • 10. Willing to forgo rescue medicine for at least 2 hours after initiation of treatment with study drug (see In-Clinic Rescue Medicine) • Exclusion Criteria Subjects to whom any of the following criteria apply at screening will be excluded: • 1. History of hemiplegic migraine (at any time in the past). • 2. History of headaches of any type occurring on ≥15 days/month during any of the 3 months prior to screening. • 3.

[2] = Study A16 Part 1: PK of single ascending oral doses of fospropofol disodium (200 to 2000 mg), fasted healthy adults; type: in vivo, human; settings: for AUC / Cmax / Tmax / AUC(0-t) / AUC(0-inf) / half-life: both sexes, human, plasma; for Cmax: read-out: Fospropofol Cmax; for AUC(0-t): read-out: Fospropofol AUC0-T; for AUC(0-inf): read-out: Fospropofol AUC0-∞; for half-life: read-out: Fospropofol t1/2 (converted)
Experimental: Part 1 of Study A16 was a double-blind, randomized, placebo-controlled study to investigate the safety-tolerability and PK of oral administration of single ascending doses of fospropofol disodium to healthy adult male and female volunteers.
Subjects were healthy adults (age 18-55 years inclusive, BMI 18-29.9 kg/m^2). Separate cohorts of 12 subjects each were randomized to receive fospropofol disodium at doses of 200, 400, 800, 1000, 1200, 1600, or 2000 mg (n=10 per cohort) or matching placebo (n=2 per cohort).
Subjects were admitted to the clinical unit for an overnight fast (Day −1), administered study drug on Day 1, and remained in the clinical unit until Day 2.
Fospropofol disodium was formulated as powder in an HPMC capsule, each capsule containing 200 mg of fospropofol disodium (weight adjusted for water content). Placebo was administered as an appropriate number of matching capsules.
Based on PK results from the early cohorts, sampling times were optimized beginning with Cohort 3 (800 mg) to preclose, 5, 10, 15, 20, 25, 30, 37, and 45, minutes and 1, 2, 4, 6, and 9 hours after closing.

[3] = A17 vs. A16 800 mg Cohort, excluding subject 308
[4] = Study A17 vs. A16 800 mg Cohort, excluding subject 308
[5] = plasma, Mean, Mean without Subject 6008 (below limit of quantitation at all time points), Fospropofol Disodium 800 mg oral
[6] = plasma, Mean, N = 12 migraine subjects, Fospropofol Disodium 800 mg oral
[7] = individual migraine subjects, Fospropofol Disodium 800 mg oral
[8] = plasma, individual migraine subjects (N = 12), Fospropofol Disodium 800 mg oral
[9] = oral fospropofol disodium 200 mg, mean
[10] = oral fospropofol disodium 400 mg, mean
[11] = oral fospropofol disodium 800 mg, mean
[12] = oral fospropofol disodium 1000 mg, mean

CC(C)c1cccc(C(C)C)c1OCOP(=O)(O)O [fospropofol, (2,6-diisopropylphenoxy)methyl dihydrogen phosphate]
Ratio of mean fospropofol Auc1, migraine subjects (all female) to female healthy volunteers [1, 3]: 110% | Ratio of mean fospropofol Auc2, migraine subjects (all female) to female healthy volunteers [1, 3]: 116% | Ratio of mean fospropofol Auc4, migraine subjects (all female) to female healthy volunteers [1, 3]: 120% | Ratio of mean fospropofol Cmax, migraine subjects (all female) to female healthy volunteers [1, 3]: 94% | Ratio of mean fospropofol Tmax, migraine subjects (all female) to female healthy volunteers [1, 3]: 89% | Ratio of mean fospropofol Auc1, migraine subjects to healthy volunteers [1, 4]: 121% | Ratio of mean fospropofol Auc2, migraine subjects to healthy volunteers [1, 4]: 130% | Ratio of mean fospropofol Auc4, migraine subjects to healthy volunteers [1, 4]: 135% | Ratio of mean fospropofol Cmax, migraine subjects to healthy volunteers [1, 4]: 105% | Ratio of mean fospropofol Tmax, migraine subjects to healthy volunteers [1, 4]: 98% | AUC ([1]; plasma, Fospropofol AUC1, Mean, Mean without Subject 6008 (below limit of quantitation at all time points), Fospropofol Disodium 800 mg oral): 3360 ng·h/mL | AUC ([1]; plasma, Fospropofol AUC1, Mean, Mean, N = 12 migraine subjects, Fospropofol Disodium 800 mg oral): 3080 ng·h/mL | AUC ([1]; plasma, Fospropofol AUC2, Mean, Mean without Subject 6008 (below limit of quantitation at all time points), Fospropofol Disodium 800 mg oral): 4310 ng·h/mL | AUC ([1]; plasma, Fospropofol AUC2, Mean, Mean, N = 12 migraine subjects, Fospropofol Disodium 800 mg oral): 3950 ng·h/mL | AUC ([1]; plasma, Fospropofol AUC4, Mean, Mean without Subject 6008 (below limit of quantitation at all time points), Fospropofol Disodium 800 mg oral): 4650 ng·h/mL | AUC ([1]; plasma, Fospropofol AUC4, Mean, Mean, N = 12 migraine subjects, Fospropofol Disodium 800 mg oral): 4260 ng·h/mL | Cmax [1, 5]: 6320 ng/mL | Cmax [1, 6]: 5790 ng/mL | Tmax [1, 5]: 19.8 min | Tmax [1, 6]: 19.8 min | Fospropofol AUC4 [1, 7]: 3837.04 ng·h/mL and 1469.88 ng·h/mL and 4303.32 ng·h/mL and 4814.33 ng·h/mL and 6942.73 ng·h/mL and 1702.48 ng·h/mL and 8572.36 ng·h/mL and 1248.45 ng·h/mL and 3152.5 ng·h/mL and 7130.22 ng·h/mL and 7986.57 ng·h/mL | Fospropofol Cmax [1, 7]: 5163.62 ng/mL and 3285.03 ng/mL and 5036.79 ng/mL and 7527.26 ng/mL and 10597.13 ng/mL and 2219.93 ng/mL and 8307.86 ng/mL and 1419.1 ng/mL and 4507.39 ng/mL and 11463.93 ng/mL and 10001.18 ng/mL | Fospropofol Tmax [1, 7]: 10 min and 40 min | Fospropofol AUC 1 hr [1, 8]: 723.61 ng·h/mL and 2418.57 ng·h/mL and 5268.76 ng·h/mL and 6456.6 ng·h/mL and 2684.78 ng·h/mL and 1315.43 ng·h/mL and 3262.09 ng·h/mL and 3522.27 ng·h/mL and 5673.87 ng·h/mL and 1193.95 ng·h/mL and 4461.52 ng·h/mL | Fospropofol AUC 2 hr [1, 8]: 1007.69 ng·h/mL and 3045.22 ng·h/mL and 6730.95 ng·h/mL and 7756.33 ng·h/mL and 3666.13 ng·h/mL and 1421.1 ng·h/mL and 4174.88 ng·h/mL and 4386.97 ng·h/mL and 6702.97 ng·h/mL and 1610.51 ng·h/mL and 6945.81 ng·h/mL | Dose proportionality of fospropofol AUC0-2h, AUC0-T, AUC0-∞, and Cmax (power model) ([2]; 200 mg to 2000 mg): close proportional | AUC ([2]; oral, 800 mg, subjects 301-312 (800 mg cohort), Mean, read-out: Fospropofol AUC1): 2780 ng·h/mL | AUC ([2]; oral, 800 mg, subjects 301-312 (800 mg cohort), Mean, read-out: Fospropofol AUC2): 3330 ng·h/mL | AUC ([2]; oral, 800 mg, subjects 301-312 (800 mg cohort), Mean, read-out: Fospropofol AUC4): 3440 ng·h/mL | Cmax ([2]; oral, 800 mg, subjects 301-312 (800 mg cohort), Mean): 6040 ng/mL | Tmax ([2]; oral, 800 mg, subjects 301-312 (800 mg cohort), Mean, read-out: Fospropofol Tmax): 20.4 min | Tmax ([2]; oral, 800 mg, subjects 301-312 (800 mg cohort), individual subjects (Subject No. in c0), read-out: Fospropofol Tmax): 30 min | Tmax ([2]; oral, 200 to 2000 mg cohorts, read-out: Fospropofol median Tmax (converted)): ~20 min | Cmax ([2]; po, 200 mg, oral fospropofol disodium 200 mg, mean): 1980 ng/mL | Tmax ([2]; po, 200 mg, oral fospropofol disodium 200 mg, median, read-out: Fospropofol Tmax): 19.8 min | Cmax ([2]; po, 400 mg, oral fospropofol disodium 400 mg, mean): 4460 ng/mL | Tmax ([2]; po, 400 mg, oral fospropofol disodium 400 mg, median, read-out: Fospropofol Tmax): 19.8 min | Cmax ([2]; po, 800 mg, oral fospropofol disodium 800 mg, mean): 6040 ng/mL | Tmax ([2]; po, 800 mg, oral fospropofol disodium 800 mg, median, read-out: Fospropofol Tmax): 19.8 min | Cmax ([2]; po, 1000 mg, oral fospropofol disodium 1000 mg, mean): 8240 ng/mL | Tmax ([2]; po, 1000 mg, oral fospropofol disodium 1000 mg, median, read-out: Fospropofol Tmax): 19.8 min | Cmax ([2]; po, 1200 mg, oral fospropofol disodium 1200 mg, Fasted (Cohort 5), n = 10, mean): 7110 ng/mL | Tmax ([2]; po, 1200 mg, oral fospropofol disodium 1200 mg, Fasted (Cohort 5), n = 10, median, read-out: Fospropofol Tmax): 19.8 min | Cmax ([2]; po, 1200 mg, oral fospropofol disodium 1200 mg, mean): 7110 ng/mL | Tmax ([2]; po, 1200 mg, oral fospropofol disodium 1200 mg, median, read-out: Fospropofol Tmax): 19.8 min | Cmax ([2]; po, 1600 mg, oral fospropofol disodium 1600 mg, mean): 10200 ng/mL | Tmax ([2]; po, 1600 mg, oral fospropofol disodium 1600 mg, median, read-out: Fospropofol Tmax): 19.8 min | Cmax ([2]; po, 2000 mg, oral fospropofol disodium 2000 mg, mean): 17100 ng/mL | Tmax ([2]; po, 2000 mg, oral fospropofol disodium 2000 mg, median, read-out: Fospropofol Tmax): 22.8 min | AUC(0-t) [2, 9]: 856 ng·h/mL | AUC(0-inf) [2, 9]: 882 ng·h/mL | half-life [2, 9]: 12.6 min | AUC(0-t) [2, 10]: 2200 ng·h/mL | AUC(0-inf) [2, 10]: 2230 ng·h/mL | half-life [2, 10]: 14.4 min | AUC(0-t) [2, 11]: 3290 ng·h/mL | AUC(0-inf) [2, 11]: 3360 ng·h/mL | half-life [2, 11]: 16.2 min | AUC(0-t) [2, 12]: 4700 ng·h/mL | AUC(0-inf) [2, 12]: 4840 ng·h/mL
